Measurements taken from patent publication US8367084B2, “Oily base for a cosmetic and cosmetic comprising the same” (Kokyu Alcohol Kogyo Co., Ltd., priority 2009, dated 2013).

Key:
Assay type in all cases: physicochemical
[1] = Acid value (Cosmetics Raw Material Standard 18); details: ester compound
Text: Acid value: determined in accordance with “Cosmetics Raw Material Standard 18, Method for the Determination of an Acid Value”.

[2] = Hydroxyl value (Cosmetics Raw Material Standard 24); details: ester compound; unit assumed
Text: Hydroxyl value: determined in accordance with “Cosmetics Raw Material Standard 24, Method for the Determination of a Hydroxyl Value”.

[3] = Viscosity by Brookfield Viscometer DV-II+; details: Spindle No. 2, 12 rpm
Protocol: Viscosity: determined by Brookfield Viscometer DV-II+ (Spindle No. 2, 12 rpm, 25 degrees C.).

[4] = Compatibility of the ester compound with oil agents; parameters: key to Compatibility: G: the compound exhibits the compatibility with both the hydrocarbon oil and silicone oil; M: the compound exhibits the compatibility with either of the two; B: the compound exhibits the compatibility with neither of the two; details: for Compatibility: 90% by mass ester compound in 10% by mass oil agent, appearance after one week at 25 degrees C.; for compatibility with the oil agents (in words): ester compound
Protocol: Compatibility: The oil agents used were as follows:
Hydrocarbon oil: Squalane (OLIVE SQUALANE from Kokyu Alcohol Kogyo Co., Ltd.)
Silicone oil: Cyclomethicone (DOWCORNING TORAY SH 245 FLUID, trademark, from Dow Corning Toray Co., Ltd.)
In 10% by mass of each oil agent indicated above were dissolved 90% by mass of the ester compound obtained from Preparation Examples and Comparative Preparation Examples in a hot water bath at a temperature of 80 to 90 degrees C. for 60 minutes under stirring. Next, the mixture obtained was cooled to 50 degrees C. under stirring and then placed in a temperature-controlled room at 25 degrees C. The appearance after one week was evaluated visually. The indication of the evaluation results is as follows.

Row | Acid value [1] | Hydroxyl value [2] [mg KOH/g] | Viscosity in mPa · s at 25° C. [3] [mPa · s] | Compatibility [4] | compatibility with the oil agents (in words) [4] | Compound
1 | 0.38 | 0.59 | 290 | M | not good | pentaerythrityl tetraisostearate [Com. Prep. Ex. 3]
2 | 0.02 | 1.25 | 109 | M | not good | CCCCC(CC)C(=O)OCC(COC(=O)C(CC)CCCC)(COC(=O)C(CC)CCCC)COC(=O)C(CC)CCCC (stereo not shown) [Com. Prep. Ex. 2, pentaerythrityl tetraethylhexanoate]
